These results are taken from patent publication US20110015221A1, “PHARMACEUTICAL COMPOSITION OF VINFLUNINE WHICH IS INTENDED FOR PARENTERAL ADMINISTRATION PREPARATION METHOD THEREOF AND USE OF SAME” (PIERRE FABRE MEDICAMENT, priority 2003, published 2011).

A short description of data set [1]: Solubility. The settings on record: water.
Data set [2] can be described thus: Stability at 25° C.: total amount of vinflunine-related impurities, pulverulent form vs aqueous solution. The class given is physicochemical. From the text:
The stability is monitored by observing the changes in the total amount of vinflunine-related impurities present.

In brackets after ≈: the same amount, converted by molar mass.

Regarding `CCC1=C[C@@H]2CN(C1)Cc1c([nH]c3ccccc13)[C@@](C(=O)OC)(c1cc3c(cc1OC)N(C)[C@H]1[C@@](O)(C(=O)OC)[C@H](OC(C)=O)[C@]4(CC)C=CCN5CC[C@]31[C@@H]54)C2` [vinorelbine], the solubility in data set [1] is 1000 mg/mL (≈ 1280 mM).

For `CC[C@]12C=CCN3CC[C@@]4(c5cc([C@@]6(C(=O)OC)CC7CC(C(C)(F)F)CN(Cc8c6[nH]c6ccccc86)C7)c(OC)cc5N(C)[C@H]4C(O)(C(=O)OC)[C@@H]1OC(C)=O)[C@@H]32` (stereo partly drawn) [batch 503, 20′,20′-difluoro-3′,4′-dihyrovinorelbine L(+)-tartrate], the “increase of the total amount of vinflunine-related impurities” value in data set [2] (after storage for 6 months at 25° C.) was determined as 197%. The “% impurity relative to 100% of active principle (total vinflunine-related impurities)” value in data set [2] (t0) is reported as 1.17%; in data set [2] (t3 months, storage at 25° C.), 2.75%; in data set [2] (t6 months, storage at 25° C.), 3.48%.

As for `CC[C@]12C=CCN3CC[C@@]4(c5cc([C@@]6(C(=O)OC)CC7CC(C(C)(F)F)CN(Cc8c6[nH]c6ccccc86)C7)c(OC)cc5N(C)[C@H]4C(O)(C(=O)OC)[C@@H]1OC(C)=O)[C@@H]32` (stereo partly drawn) [vinflunine, 20′,20′-difluoro-3′,4′-dihydrovinorelbine], in data set [1], the solubility was in the range of 290 to 330 mg/mL (≈ 355 to 404 mM).

What is called solubility is the dissolved amount per volume that the medium holds. Read a high solubility as much dissolved substance.
